From patent publication EP4566596A1, “ANTI-HBV AGENT” (RIKEN, priority 2022, dated 2024) come the findings set out here.

The structures appear in SMILES notation. Values joined by “and” are separate entries in the source; they are usually repeats but may differ in a detail not shown here. Equal values may be shown once. Read-outs that look alike come from different tables or passages of the source. Bounds are passed on as bounds.

The test system of series [1] is pgRNA in PXB cells. Description: Anti-HBV activity using hepatitis B virus-infected primary cultured human hepatocytes (pgRNA, qPCR). The format is cell-based. The note with it: 7 days treatment; for IC50: Hepatitis B virus, Hepatocyte, compound added after 28 days; for effect of suppressing pgRNA: FIG. 3. For orientation: Quantitative PCR measures a nucleic acid by following its amplification.

Series [2] relates to HBV DNA from Hep2.2.15.7. Put plainly: Anti-HBV activity using hepatitis B virus-producing cultured cells (HBV DNA in culture medium, qPCR). It is filed as cell-based. The note with it: 144 h, Hep2.2.15.7 cells, HBV DNA in culture medium after 6 days. The protocol: Hep2.2.15.7 cells were spread in a 96-well plate (manufactured by TPP) at a density of 1 × 10^5 cells/well and cultured at 37°C and 5% CO2 using a culture medium containing DMEM/F12-GlutaMAX (manufactured by Thermo Fisher Scientific Inc.), 10% fetal bovine serum, 100 U/ml penicillin, 100 µg/ml streptomycin (manufactured by Thermo Fisher Scientific Inc.), and 5 µg/ml insulin (manufactured by Wako Pure Chemical). A test compound was added to the culture, and cells in three wells per condition were cultured. After 3 days, replacement with a medium containing the test compound was performed. After 6 days, cell viability was determined by quantitatively measuring intracellular mitochondrial activity. This was performed by measuring absorbance at 490 nm using Cell Proliferation Kit II (XTT) (manufactured by Roche) and a plate reader, EnSight (manufactured by PerkinElmer). At the same time, HBV-derived DNA was extracted and purified from the cell culture medium using Agencourt Genfind v2 (manufactured by Beckman-Coulter). […].

The format of series [3] is in vitro ADME, human. The protocol:
(§1) Then, 50 µL of a NADPH regeneration system (85 mM D-glucose-6-phosphate, 10 mM β-nicotinamide adenine dinucleotide phosphate, oxidized form, and 10 U/mL glucose-6-phosphate dehydrogenase, all manufactured by Oriental Yeast Co., Ltd.) was added and mixed, and incubation was started. The incubation starting point was set to 0 minutes of reaction. At 0, 30, and 60 minutes of reaction, a 50-µL fraction of the reaction solution was collected into 200 µL of an ice-cooled 0.5 µM propranolol/acetonitrile solution, and the reaction was stopped. The obtained preparative solution was transferred to a protein removal plate (manufactured by Phenomenex), and after suction filtration through a manifold for 96-well plates, the filtrate was collected into a 96-well plate for collection. 100 µL of the collected filtrate was transferred to a 96-well plate and dried in a nitrogen-blowing high-speed parallel concentrator (Turbo Vap 96, manufactured by Biotage). After dissolving the dried sample with the initial mobile phase, the target compound was quantified by liquid chromatography-tandem mass spectrometry (LC-MS/MS). […] As technical replicates, the residual rate was calculated in two independent series for each compound to be evaluated for each animal species.
(§2) The configuration of LC-MS/MS is as follows: high-performance liquid chromatography: Nexera X2 UPLC system (manufactured by Shimadzu), column: ACQUITY UPLC BEH C18 Column, 130A, 1.7 µm, 2.1 ×× 50 mm (manufactured by Waters), guard column: ACQUITY UPLC BEH C18 VanGuard Column, 130A, 1.7 µm, 2.1 ×× 50 mm (manufactured by Waters), mobile phase A: 0.1% aqueous formic acid solution/acetonitrile (9:1, v/v), mobile phase B: 0.1% aqueous formic acid solution/acetonitrile (1:9, v/v), gradient conditions: 0 to 1 min; 30% B, 1 to 1.5 min; 30 to 100% B, 1.5 to 3.5 min; 100% B, and 3.5 to 5 min; 30% B, and mass spectrometer: QTRAP 4500 (manufactured by AB Sciex) were used, a measurement target compound was ionized using an ESI method, and target ions were measured by multiple reaction monitoring. […]

Series [4] is classed as in vitro ADME, rat. The protocol: as §1, §2
The format of series [5] is in vitro ADME, mouse. The protocol: as §1, §2
Series [6] deals with cccDNA. Put plainly: Effect of suppressing cccDNA in HBV-infected PXB cells (qPCR). The format is cell-based, HBV genotype C. The note with it: 7 days treatment, FIG. 3. The protocol: Fresh human hepatocytes derived from PXB mice (PXB cells; manufactured by PhoenixBio Co., Ltd.) were spread in a collagen-coated 96-well plate (manufactured by FALCON) at a density of 0.7 × 10^5 cells/well, and cultured for 7 days using a dHCGM medium (manufactured in house) at 37°C and 5% CO2. HBV genotype C (manufactured by PhoenixBio Co., Ltd.) was added to the culture medium together with 4% PEG 8000 at a final density of 3.5 × 10^5 copies/well, and the medium was replaced after 1 day, and every third or fourth day thereafter. A test compound was added after 28 days, and cells in three wells per condition were cultured. Then, replacement with a medium containing the test compound was also performed after 3 or 4 days, and after 7 days, DNA was extracted and purified from the cells using Agencourt DNAdvance (manufactured by Beckman-Coulter). […]

The nature of series [7]: Mouse blood drug concentrations after oral administration (LC-MS/MS). The format is in vivo, mice (ICR strain). The note with it: ICR mice, plasma; for half-life: mouse, read-out: Elimination half-life. The protocol:
A compound was dissolved in a mixture of ethanol and polysorbate 80 (1:1) to make 10 mg/mL, and the resulting mixture was diluted with saline to 1 mg/mL and orally administered to mice (ICR strain, males, 6-10 weeks old) using a sonde. Blood was collected from the tail vein at 0.25, 0.5, 1, 2, 4, and 7 hours after administration, and plasma was obtained. An internal standard (ritonavir) was added to 10 µL of plasma, and a deproteinized sample was used for measurement. The measurement was performed according to a liquid chromatography-tandem mass spectrometry method using a Shimadzu LCMS-8050 system. The analytical conditions were as follows. A COSMOSIL 3C18-MS-II (2.0 ID × 50 mm; manufactured by Nacalai Tesque, Inc.) column was used. The column temperature was 40°C, and the autosampler temperature was 4°C. The mobile phase was a combination of Phase A: water/acetonitrile = 9/1 (v/v) and Phase B: acetonitrile, and the flow rate was 0.6 mL/min. 2 µL of the sample was injected. The gradient elution conditions were 0 to 0.9 min, 5% B; 0.9 to 2.1 min, 5 to 95% B; 2.1 to 5.5 min, 95% B; 5.5 to 5.51 min, 95 to 5% B; and 5.51 to 6.0 min, 5% B. The cleaning solution used was an isopropanol/methanol/acetonitrile/water = 1/1/1/1 (v/v/v/v, %) solution containing 0.1% formic acid. The ionization method was ESI, and the collected data was processed using LabSolutions software (Ver. 5.97 SP1, Shimadzu Corporation).

Series [8] relates to HBV. Description: Effect of suppressing HBsAg, HBeAg and pgRNA in primary cultured human hepatocytes infected with HBV. The format is cell-based. The note with it: concentrations of 0.01 to 100 mM, FIG. 2. The protocol: Primary cultured human hepatocytes infected with HBV were treated with the compound CBT-289 or Entecavir (ETV) at concentrations of […], and the HBsAg and HBeAg levels in the medium and the pgRNAlevel in the cells were measured.

Series [9] addresses HBc T33N (Hepatitis B virus genotype D subtype ayw, UniProt P03146, T33N). Description: HBV replication assay in HeLa cells, HBc T33N mutant. The format is cell-based.
In series [10] the test system is HBV genotype C. Description: Anti-HBV activity in hepatitis B virus-infected human hepatocyte chimeric mice (serum HBV DNA). The note with it: 10 mg/kg orally twice daily for 21 days, FIG. 4. The format is in vivo, Human hepatocyte-transplanted chimeric mice (PXB mice).
In series [11] the test system is HBc (1-149). Description: Capsid formation mechanism: gel filtration and electron microscopy of recombinant HBc (1-149). The format is biochemical, HBV genotype C. The protocol: An expression plasmid in which the ubiquitin-like protein SUMO serving as a tag was fused to the sequence of the association domain (1-149) of HBc of genotype C was prepared and introduced into the Escherichia coli KRX strain, and a recombinant protein was expressed and purified. After the recombinant HBc (1-149) was cleaved with a SUMO protease to remove the tag, the dimer peak was separated by gel filtration and used for subsequent analyses. […]
This behavior is similar to that of the compound CBT-078. […] A fraction was collected from the elution peak at the position corresponding to the capsid, and a negatively stained image was captured using an electron microscope.

HBc T33N, sequence (P03146 whole entry T33N, looked up): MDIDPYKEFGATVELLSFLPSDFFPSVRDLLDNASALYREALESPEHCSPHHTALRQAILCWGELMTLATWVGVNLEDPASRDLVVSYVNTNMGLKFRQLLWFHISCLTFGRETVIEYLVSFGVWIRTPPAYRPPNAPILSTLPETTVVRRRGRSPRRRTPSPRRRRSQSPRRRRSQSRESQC

Turning to `CCCCCCNC(=O)c1ccc(NC(=O)c2cccc(C(=O)Nc3ccc(F)cc3)c2F)c(C)c1` [CBT-388], the IC50 (commonly the point on the concentration scale where inhibition reaches its midpoint) in series [1] stood at 4590 nM; in [2], 180 nM.
As to `Cc1ccccc1NC(=O)c1cccc(C(=O)Nc2ccc(F)cc2)c1F` [CBT-078, reference compound], the “effect of suppressing pgRNA” value in series [1] is listed as “did not have the effect of suppressing pgRNA”. Moreover, the residual rate was 100% in series [3] (Human liver microsomes, 0 min (baseline)); 77% in [3] (Human liver microsomes, 30 min); 60% and 58% in series [3] (Human liver microsomes, 60 min); 100% in series [4] (Rat liver microsomes, 0 min (baseline)); 53% and 52% in series [4] (Rat liver microsomes, 30 min); 35% and 34% in series [4] (Rat liver microsomes, 60 min). Besides, the residual rate in series [5] (Mouse liver microsomes, 0 min (baseline)) was 100%; in [5] (Mouse liver microsomes, 30 min), 6%; in series [5] (Mouse liver microsomes, 60 min), 0%. For the same compound, the “effect of suppressing cccDNA” value in [6] is given as “did not have the effect of suppressing pgRNA or cccDNA”. Also, in [7], the Maximum blood concentration worked out at 710 ng/mL. Further, in series [7], the “Time to reach maximum blood concentration” value is 30 min. Moreover, in series [7] (in vivo), the half-life (commonly the time needed for the level to fall by half in the phase considered) came to 0.533 h. In series [2], this compound yielded an IC50 of 270 nM.
Take `C=C1[C@H](CO)[C@@H](O)C[C@@H]1n1cnc2c(=O)[nH]c(N)nc21` [ETV, Entecavir, reference compound]: in series [8], the “HBeAg level in the medium” value is on record as “did not suppress them”, the “HBsAg level in the medium” value is listed as “did not suppress them” and the “pgRNA level in the cells” value is given as “did not suppress them”.
`Cc1cc(C#N)ccc1NC(=O)c1cccc(C(=O)Nc2ccc(F)cc2)c1F` [CBT-209]: the residual rate in series [3] (human, 0 min, 1 µM, pH 7.4) stood at 100%; in series [4] (rat, 0 min, 1 µM, pH 7.4), 100%; in series [5] (mouse, 0 min, 1 µM, pH 7.4), 100%. For the same compound, in [9], the “antiviral activity against viruses with the HBc T33N mutation” value is “have antiviral activity even against viruses with the HBc T33N mutation”. Besides, the “HBV DNA level in the serum” value in [10] is reported as “preferentially reduced compared with GLS4 or the vehicle”. In [7], the Maximum blood concentration came to 250 ng/mL. Besides, the “Time to reach maximum blood concentration” value in [7] amounted to 120 min. Moreover, in series [7] (male), the half-life stood at 13.8 h. Also, the “association state of HBc (1-149) by gel filtration” value in series [11] (11 µM HBc (1-149), 15 µM compound, overnight incubation at 4°C, FIG. 5) was “the elution peak shifted to the position corresponding to the capsid”. Besides, in [11] (7 days of incubation, gel filtration and electron microscope), the “stability of the capsids formed” value is “stable even after 7 days of incubation”. In series [2], this compound gave an IC50 of 39 nM.
Take `CCC[C@@H](C)NC(=O)c1ccc(NC(=O)c2cccc(C(=O)Nc3ccc(F)cc3)c2F)c(C)c1` [CBT-391]: the IC50 in series [1] came to 2480 nM; in series [2], 95 nM.
Regarding `Cc1cc(C(=O)NC(C)(C)C)ccc1NC(=O)c1cccc(C(=O)Nc2ccc(F)cc2)c1F` [CBT-385], the values for the IC50 in [1] and in series [2] were above 100000 nM and 180 nM, respectively.
Consider `Cc1cc(C(=O)NCCC(C)C)ccc1NC(=O)c1cccc(C(=O)Nc2ccc(F)cc2)c1F` [CBT-390], for which the IC50 in series [1] worked out at 730 nM; in series [2] it was 61 nM.
For the compound `CCCCNC(=O)c1ccc(NC(=O)c2cccc(C(=O)Nc3ccc(F)cc3)c2F)c(C)c1` [CBT-289], in [1], the “effect of suppressing pgRNA” value was “suppressed cccDNA and pgRNA in a concentration-dependent manner”; the IC50 turned out to be 2480 nM. Besides, the “effect of suppressing cccDNA” value in series [6] was “suppressed cccDNA and pgRNA in a concentration-dependent manner”. In addition, in series [8], the “HBeAg level in the medium” value is “suppressed HBsAg, HBeAg, and pgRNAin a concentration-dependent manner”; the “HBsAg level in the medium” value was “suppressed HBsAg, HBeAg, and pgRNAin a concentration-dependent manner”; the “pgRNA level in the cells” value was “suppressed HBsAg, HBeAg, and pgRNAin a concentration-dependent manner”. For the same compound, the IC50 in series [2] was 74 nM.
For the compound `CCCNC(=O)c1ccc(NC(=O)c2cccc(C(=O)Nc3ccc(F)cc3)c2F)c(C)c1` [CBT-383], the IC50 in series [1] came to 2330 nM; in series [2], 910 nM.
Turning to `C=CCCNC(=O)c1ccc(NC(=O)c2cccc(C(=O)Nc3ccc(F)cc3)c2F)c(C)c1` [CBT-387], the values for the IC50 in series [1] and in series [2] were 3410 nM and 41 nM, respectively.
With `CCNC(=O)c1ccc(NC(=O)c2cccc(C(=O)Nc3ccc(F)cc3)c2F)c(C)c1` [CBT-384], the IC50 in [1] is 16500 nM; in [2], 75 nM.
As for `CCCCCCCCCCNC(=O)c1ccc(NC(=O)c2cccc(C(=O)Nc3ccc(F)cc3)c2F)c(C)c1` [CBT-389], the IC50 worked out at 100000 nM in series [1] and 470 nM in series [2].
